Reference: ChEMBL document CHEMBL1157641, “Carbonic anhydrase inhibitors. Inhibition of mammalian isoforms I-XIV with a series of natural product polyphenols and phenolic acids” (Bioorg Med Chem, 2010)

Columns and labels:
Carbonic anhydrase 12 = Carbonic anhydrase 12 (Homo sapiens, UniProt O43570)
Description: Inhibition of human CA12 by stopped-flow CO2 hydration assay

Carbonic anhydrase 4 = Carbonic anhydrase 4 (Homo sapiens, UniProt P22748)
Description: Inhibition of human CA4 by stopped-flow CO2 hydration assay

Carbonic anhydrase 1 = Carbonic anhydrase 1 (Homo sapiens, UniProt P00915)
Description: Inhibition of human CA1 by stopped-flow CO2 hydration assay

Carbonic anhydrase 14 = Carbonic anhydrase 14 (Homo sapiens, UniProt Q9ULX7)
Sequence of Carbonic anhydrase 14 (Q9ULX7 whole entry): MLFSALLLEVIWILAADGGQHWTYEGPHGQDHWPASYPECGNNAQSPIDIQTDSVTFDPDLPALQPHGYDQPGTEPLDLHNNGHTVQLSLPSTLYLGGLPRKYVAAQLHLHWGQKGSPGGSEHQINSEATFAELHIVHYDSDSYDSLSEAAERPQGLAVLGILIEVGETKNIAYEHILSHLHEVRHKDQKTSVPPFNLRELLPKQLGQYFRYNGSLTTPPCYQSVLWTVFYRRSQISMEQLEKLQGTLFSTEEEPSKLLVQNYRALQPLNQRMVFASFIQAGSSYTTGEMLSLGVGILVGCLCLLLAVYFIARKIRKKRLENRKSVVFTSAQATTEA
Description: Inhibition of human CA14 by stopped-flow CO2 hydration assay

Carbonic anhydrase 7 = Carbonic anhydrase 7 (Homo sapiens, UniProt P43166)
Sequence of Carbonic anhydrase 7 (P43166 whole entry): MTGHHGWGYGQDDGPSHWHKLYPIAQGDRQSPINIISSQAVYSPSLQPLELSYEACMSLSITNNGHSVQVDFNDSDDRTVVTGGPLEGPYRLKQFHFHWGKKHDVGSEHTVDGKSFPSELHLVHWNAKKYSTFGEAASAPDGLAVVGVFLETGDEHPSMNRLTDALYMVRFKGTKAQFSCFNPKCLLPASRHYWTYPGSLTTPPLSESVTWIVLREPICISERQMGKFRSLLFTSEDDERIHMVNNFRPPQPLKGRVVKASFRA
Description: Inhibition of human CA7 by stopped-flow CO2 hydration assay

Carbonic anhydrase 9 = Carbonic anhydrase 9 (Homo sapiens, UniProt Q16790)
Description: Inhibition of human CA9 by stopped-flow CO2 hydration assay

Carbonic anhydrase 3 = Carbonic anhydrase 3 (Homo sapiens, UniProt P07451)
Sequence of Carbonic anhydrase 3 (P07451 whole entry): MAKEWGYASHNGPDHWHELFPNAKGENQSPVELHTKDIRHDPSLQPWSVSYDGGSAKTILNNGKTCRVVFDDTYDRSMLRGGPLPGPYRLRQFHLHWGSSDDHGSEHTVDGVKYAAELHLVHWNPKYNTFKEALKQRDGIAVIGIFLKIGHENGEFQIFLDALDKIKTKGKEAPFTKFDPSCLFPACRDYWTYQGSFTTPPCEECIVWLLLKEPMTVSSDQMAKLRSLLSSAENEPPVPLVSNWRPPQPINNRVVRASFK
Description: Inhibition of human CA3 by stopped-flow CO2 hydration assay

Carbonic anhydrase 13 = Carbonic anhydrase 13 (Mus musculus, UniProt Q9D6N1)
Sequence of Carbonic anhydrase 13 (Q9D6N1 whole entry): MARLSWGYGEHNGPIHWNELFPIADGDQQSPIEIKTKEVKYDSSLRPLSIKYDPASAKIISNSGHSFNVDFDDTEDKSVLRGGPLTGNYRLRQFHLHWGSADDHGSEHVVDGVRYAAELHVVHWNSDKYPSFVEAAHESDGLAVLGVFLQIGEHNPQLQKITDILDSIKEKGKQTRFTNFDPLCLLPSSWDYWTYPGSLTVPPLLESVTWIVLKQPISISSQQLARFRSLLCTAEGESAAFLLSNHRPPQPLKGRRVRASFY
Description: Inhibition of mouse CA13 by stopped-flow CO2 hydration assay

[1] = target: Carbonic anhydrase 5A, mitochondrial (Homo sapiens, UniProt P35218)
Sequence of Carbonic anhydrase 5A, mitochondrial (P35218 whole entry): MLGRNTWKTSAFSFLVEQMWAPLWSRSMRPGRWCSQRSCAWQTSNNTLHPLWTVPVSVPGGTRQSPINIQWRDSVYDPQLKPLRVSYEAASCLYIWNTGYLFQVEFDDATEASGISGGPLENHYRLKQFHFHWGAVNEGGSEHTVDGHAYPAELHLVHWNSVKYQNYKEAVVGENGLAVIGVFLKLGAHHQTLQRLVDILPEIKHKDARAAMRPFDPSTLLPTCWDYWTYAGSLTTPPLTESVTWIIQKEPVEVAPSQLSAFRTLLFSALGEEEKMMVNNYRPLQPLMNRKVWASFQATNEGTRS
Description: Inhibition of human CA5A by stopped-flow CO2 hydration assay

Carbonic anhydrase 6 = Carbonic anhydrase 6 (Homo sapiens, UniProt P23280)
Sequence of Carbonic anhydrase 6 (P23280 whole entry): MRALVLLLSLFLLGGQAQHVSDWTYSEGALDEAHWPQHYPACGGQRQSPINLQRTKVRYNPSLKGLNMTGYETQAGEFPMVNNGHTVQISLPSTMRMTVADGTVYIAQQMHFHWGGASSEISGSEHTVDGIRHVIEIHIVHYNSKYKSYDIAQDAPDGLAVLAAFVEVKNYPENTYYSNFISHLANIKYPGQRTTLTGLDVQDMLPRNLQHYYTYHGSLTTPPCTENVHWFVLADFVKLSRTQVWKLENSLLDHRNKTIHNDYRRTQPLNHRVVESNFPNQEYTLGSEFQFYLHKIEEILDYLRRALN
Description: Inhibition of human CA6 by stopped-flow CO2 hydration assay

[2] = target: Carbonic anhydrase 5B, mitochondrial (Homo sapiens, UniProt Q9Y2D0)
Sequence of Carbonic anhydrase 5B, mitochondrial (Q9Y2D0 whole entry): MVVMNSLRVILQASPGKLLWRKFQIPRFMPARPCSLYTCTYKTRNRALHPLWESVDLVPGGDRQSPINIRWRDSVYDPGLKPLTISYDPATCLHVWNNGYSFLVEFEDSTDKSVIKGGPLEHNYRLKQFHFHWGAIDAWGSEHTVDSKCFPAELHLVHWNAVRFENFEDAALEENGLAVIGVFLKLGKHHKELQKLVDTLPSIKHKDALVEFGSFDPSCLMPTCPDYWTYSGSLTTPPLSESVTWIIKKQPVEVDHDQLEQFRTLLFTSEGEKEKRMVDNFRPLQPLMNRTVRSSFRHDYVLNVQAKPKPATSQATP
Description: Inhibition of human CA5B by stopped-flow CO2 hydration assay

Carbonic anhydrase 2 = Carbonic anhydrase 2 (Homo sapiens, UniProt P00918)
Description: Inhibition of human CA2 by stopped-flow CO2 hydration assay

Sequence of Carbonic anhydrase 12 (O43570 whole entry): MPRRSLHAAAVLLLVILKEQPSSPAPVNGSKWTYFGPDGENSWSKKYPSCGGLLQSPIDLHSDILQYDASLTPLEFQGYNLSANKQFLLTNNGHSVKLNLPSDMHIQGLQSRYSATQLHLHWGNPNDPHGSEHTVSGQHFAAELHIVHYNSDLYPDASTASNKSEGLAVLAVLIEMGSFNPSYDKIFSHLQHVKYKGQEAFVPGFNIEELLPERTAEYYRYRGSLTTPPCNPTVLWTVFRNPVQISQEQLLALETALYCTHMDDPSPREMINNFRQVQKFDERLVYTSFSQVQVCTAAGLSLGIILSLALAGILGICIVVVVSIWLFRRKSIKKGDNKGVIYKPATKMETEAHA
Sequence of Carbonic anhydrase 4 (P22748 whole entry): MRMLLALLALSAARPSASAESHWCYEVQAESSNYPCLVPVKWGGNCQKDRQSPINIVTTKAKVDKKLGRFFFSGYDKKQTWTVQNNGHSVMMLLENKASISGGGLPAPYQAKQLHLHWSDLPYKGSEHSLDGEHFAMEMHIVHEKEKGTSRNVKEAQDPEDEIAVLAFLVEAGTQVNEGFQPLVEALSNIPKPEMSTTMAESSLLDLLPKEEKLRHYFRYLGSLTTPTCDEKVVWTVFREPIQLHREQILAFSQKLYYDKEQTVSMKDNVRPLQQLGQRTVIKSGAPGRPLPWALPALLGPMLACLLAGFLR
Sequence of Carbonic anhydrase 1 (P00915 whole entry): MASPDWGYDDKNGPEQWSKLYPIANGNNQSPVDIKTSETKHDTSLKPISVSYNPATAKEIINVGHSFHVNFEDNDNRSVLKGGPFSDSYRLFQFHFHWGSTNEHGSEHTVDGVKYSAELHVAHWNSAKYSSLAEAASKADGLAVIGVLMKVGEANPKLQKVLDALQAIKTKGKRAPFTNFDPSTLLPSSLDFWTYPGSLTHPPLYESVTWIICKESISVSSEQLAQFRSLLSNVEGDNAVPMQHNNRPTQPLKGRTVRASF

Row | Structure (SMILES) | Ki (Carbonic anhydrase 12) | Ki (Carbonic anhydrase 4) | Ki (Carbonic anhydrase 1) | Ki (Carbonic anhydrase 14) | Ki (Carbonic anhydrase 7) | Ki (Carbonic anhydrase 9) | Ki (Carbonic anhydrase 3) | Ki (Carbonic anhydrase 13) | Ki [1] | Ki (Carbonic anhydrase 6) | Ki [2] | Ki (Carbonic anhydrase 2)
1 | O=C(O)c1ccc(O)cc1 [PARABEN] | 6.27 µM | 7.78 µM | 0.92 µM | 6.16 µM | 4.08 µM | 3.73 µM | 6.61 µM | 7.79 µM | 3.67 µM | 5.7 µM | – | –
2 | O=C(O)/C=C/c1ccc(O)cc1 [COUMARIC ACID] | 8.01 µM | 9.6 µM | 1.07 µM | 6.68 µM | 5.23 µM | 5.33 µM | 7.57 µM | 10.1 µM | 5.96 µM | 6.72 µM | 7.76 µM | 0.98 µM
3 | O=C(O)c1cc(O)c(O)c(O)c1 [GALLIC ACID] | 7.78 µM | 9.8 µM | 3.2 µM | 7.03 µM | 6.07 µM | 6.99 µM | 7.49 µM | 9.86 µM | 4.08 µM | 6.13 µM | 9.97 µM | 2.25 µM
4 | O=c1oc2c(O)c(O)cc3c(=O)oc4c(O)c(O)cc1c4c23 [ELLAGIC ACID] | 10.1 µM | 9.08 µM | 2.32 µM | 8.91 µM | 6.32 µM | 9.37 µM | 10.5 µM | 10.3 µM | 7.59 µM | 7.06 µM | 12.7 µM | –
5 | O=c1c(O)c(-c2ccc(O)c(O)c2)oc2cc(O)cc(O)c12 [QUERCETIN] | 9.39 µM | 7.89 µM | 2.68 µM | 5.41 µM | 4.84 µM | 7 µM | 8.1 µM | 9.03 µM | 6.81 µM | 6.17 µM | 11.9 µM | 2.54 µM
6 | COc1cc(C(=O)O)cc(OC)c1O [SYRINGIC ACID] | 9.01 µM | 10.6 µM | 4.15 µM | 9.14 µM | 7.81 µM | 8.2 µM | 8.58 µM | 11 µM | 6.34 µM | 7.55 µM | 35.4 µM | 3.19 µM
7 | COc1cc(/C=C/C(=O)O)ccc1O [FERULATE] | 9.78 µM | 10.8 µM | 2.89 µM | 9.43 µM | 7.41 µM | 9.87 µM | 11.1 µM | 12.2 µM | 7.04 µM | 8.45 µM | 10.5 µM | 2.4 µM
